Data published in publication PMC10652874, “Investigation into the mechanism of action of the antimicrobial peptide epilancin 15X” (Frontiers in Microbiology, 2023).

Tests used:
[1] = tested on: B. subtilis BSF2470 (1A980); assay: Killing kinetics (CFU counting); assay type: cell-based, Bacillus subtilis
Experimental: S. carnosus TM300 and B. subtilis BSF2470 (1A980) cell cultures were grown to mid-log phase in BHI and LB broth, respectively. […] At each time point, an aliquot of […] treated-culture was serial-diluted and placed on BHI agar plates for S. carnosus and LB agar plates for B. subtilis. The plates were grown for 1 day at 37°C and the colonies were counted. Each experiment was performed in triplicate and untreated cell culture was used as the negative control.

S. carnosus TM300 = assay: Membrane potential study with DiOC2 (flow cytometry); assay type: cell-based, Staphylococcus carnosus; settings: S. carnosus TM300, 20 min, 0.5x, 1x, 4x MIC, n = 3
Experimental: Cultures of S. carnosus TM300 were grown to OD600 1.0 and diluted to OD600 0.1 in fresh BHI medium. The culture was then combined with 30 μM 3,3′-diethyloxacarbocyanine (DiOC2, ThermoFisher D14730) and incubated for 20 min. […] Another two tubes were prepared without antibiotic treatment as controls. The culture was analyzed with a BD Biosciences LSR II flow cytometer using excitation at 488 nm with an argon laser and measurement of emission through a band-pass filter at 616/20 nm. A minimum of 30,000 events were detected for each sample. The experiment was repeated three times, and the mean red/green fluorescence ratio was determined.

[2] = tested on: fatty acid biosynthesis in S. carnosus TM300; assay type: cell-based, Staphylococcus carnosus; settings: S. carnosus TM300, 2× MIC, normalized to OD600, three independent experiments
Experimental: Radiolabel incorporation experiments were carried out similarly as previously described but using S. carnosus ([Wu et al., 2019]). The OD600 of parallel nonradioactive cultures was measured at each time point to normalize the measured radioactivity and minimize effects due to cell death and growth inhibition. The radiolabeled reagents and their corresponding positive and negative antibiotic controls were as follows. […] All experiments were conducted independently three times.
Thre e in de pen den t ex perime nts of incorporation of (A) 14C- acetic acid into fatty acids, (B) 14C- thymi din e into D NA, (C) 3H-uridi ne into RNA, (D) 14C- lab el ed ami no acids into protei n, and (E) 14C- label ed GlcNAc into cell w all in S. carnosus TM300 cells treated with vario u s antimicro bia l agents. T he p ercent i nco rpo ratio n at 0 min was measured after incubati ng the cel l cultur e with 0.8 μCi/mL radioactive precursors for 15 min. […] Positive controls a re gr een and negative controls are black (cells o nly) an d blu e (co mpo und w ith mo d e o f actio n unr elate d to th e a ssay i n que stio n). T he ra dio activity o f each a nti bio tic - treated cultur e was normalized based on it s OD600 at each time point compared to th e unt reate d ce ll cultur e.

[3] = tested on: LiaRS response in B. subtilis BSF2470; assay: LiaRS disk diffusion reporter assay (β-galactosidase, X-Gal); assay type: cell-based, Bacillus subtilis; settings: 37°C overnight
Experimental: The LiaRS response was determined via disk diffusion as described previously ([Mascher et al., 2004]). Briefly, B. subtilis strain BSF2470 was grown in LB supplemented with erythromycin (1 μg/mL) overnight at 37°C with shaking. A total of 20 μL of overnight culture was mixed with 100 μL of 20 mg/mL X-Gal (dissolved in DMF) and 5 mL of 0.7% soft LB agar then poured onto a 1.5% LB agar base. The plates were allowed to cool and dry at room temperature for 20 min. The desired molecule was either spotted on a filter paper disk and placed on top of the agar or directly spotted on the agar. The following molecules were tested: ampicillin, 0.5 μL on filter disk, 1 μL directly spotted, 100 mg/mL; compound 1771/LtaS-IN-1, 4 μL, 20 mM (dissolved in DMSO); epilancin 15X, 4 μL, 5 mM; vancomycin, 1 μL, 100 mg/mL; nisin, 4 μL, 2 mM; bacitracin, 4 μL on filter disk, 5 μL directly spotted, 100 mg/mL; water, 5 μL; magainin 2, 10 μL, 1 mM; melittin, 10 μL, 1 mM. The plate was incubated at 37°C overnight. After overnight incubation, the plate was imaged. Compound 1771 (CS-0114233) was purchased from ChemScene LLC.
To investigate the effect of epilancin 15X on the cell envelope, we employed the two-component LiaRS reporter system in B. subtilis (lipid II cycle interfering antibiotic response regulator and sensor; [Mascher et al., 2004]). Briefly, the LiaRS assay is a disk diffusion assay used to screen for the ability of compounds to induce β-galactosidase expression in engineered B. subtilis BSF2470 ([Mascher et al., 2004]). Molecules that produce a blue ring around the edge of the zone of growth inhibition are believed to interfere with the lipid II cycle ([Hachmann et al., 2009]). […] The compound 1771, also called LtaS-IN-1, inhibits lipoteichoic acid (LTA) synthesis ([Richter et al., 2013]) and to the best of our knowledge has not been tested in the LiaRS assay.

B. subtilis ATCC 6633 = assay: Fluorescence and bright field (Airyscan) microscopy; assay type: cell-based, Bacillus subtilis
Experimental: Standard microscope slides coated with poly-D-lysine (R&D Systems, 34–392 − 000101) overnight were washed with water and sterilized in ethanol. Overnight bacterial culture was centrifuged at 4,500 ×g and the pellet was resuspended gently three times in fresh PBS to remove the media background. Then 20 μL of cell culture in PBS and 180 μL of PBS were loaded on each slide and incubated at room temperature for 30 min. Next, 1 mL of PBS was used to wash the slides at least five times to remove unadhered cells. A final concentration of 200 nM epilancin 15X-TAMRA in 200 μL of PBS was applied to each slide and incubated at room temperature for 30 min. PBS was used to wash the slides at least five times to wash away unbound Epilancin 15X. A final concentration of 10% formaldehyde (Thermo Scientific, PI28906) and 2.5% glutaraldehyde (Fisher Chemical, O2957–1) in PBS was applied to each slide and incubated for 30 min. Three times 1 mL of PBS was applied to wash away excess fixing solution. A drop of ProLong Glass Antifade Mountant (Invitrogen, P36982) was applied to each slide, covered with a glass coverslip (Ibidi, NC0601315), and dried overnight protected from light. All micrographs were captured using a Zeiss LSM 880 Airyscan microscope (Carl R. Woese Institute for Genomic Biology, UIUC). […]

Epilancin 15X
growth (colonies) after treatment ([1]; B. subtilis BSF2470, 4x MIC, 90 and 120 minutes, at the dilution factor plated): no growth was observed | number of colony forming units (CFU) ([1]; B. subtilis BSF2470, mid-log, 1x and 4x MIC, 30-180 min, triplicate): significant decrease | red/green fluorescence ratio of DiOC2 (membrane potential) (S. carnosus TM300): increase | fatty acid biosynthesis (14C-acetic acid incorporation) [2]: decrease | LiaRS response (blue ring at the edge of the zone of inhibition) [3]: did not induce a LiaRS response | aggregation phenotype of cells (brightfield) (B. subtilis ATCC 6633): Aggregation and chaining of cells was observed
